From article PMC10584170, “Machine learning-based phenotypic imaging to characterise the targetable biology of Plasmodium falciparum male gametocytes for the development of transmission-blocking antimalarials” (PLOS Pathogens, 2023)

Tests used:
[1] = test system: P. falciparum male gametocytes; test: P. falciparum Dual Gamete Formation Assay (PfDGFA), male readout (exflagellation); assay type: cell-based, Plasmodium falciparum NF54; conditions: for % inhibition male (individual replicates) R1: replicate R1; for % inhibition male (individual replicates) R3: replicate R3; for % inhibition male (individual replicates) R4: replicate R4; for Average inhibition male (%): average of replicates; for Activity: hit = >50% inhibition in male or female readout in at least 3 replicates, 0 = no class assigned
Summary of the method: (§1)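 NF54 mature gametocytes (d14), cpd 24 h 37°C hypoxic gas; trigger: xanthurenic acid ookinete medium + Cy3 anti-Pfs25, 4°C 4 min → 28°C 4 min. Male: exflagellation centres, brightfield x6. Female: Pfs25+ gametes, fluorescence, +24 h 28°C dark.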

[2] = test system: P. falciparum female gametocytes; test: P. falciparum Dual Gamete Formation Assay (PfDGFA), female readout (Pfs25-positive female gametes); assay type: cell-based, Plasmodium falciparum NF54; conditions: for % inhibition female (individual replicates) R1: replicate R1; for % inhibition female (individual replicates) R3: replicate R3; for % inhibition female (individual replicates) R4: replicate R4; for Average inhibition female (%): average of replicates
Summary of the method: as §1

[3] = PfDGFA at 2µM, 24h preincubation with gametocytes prior to induction of gametogenesis
[4] = PfDGFA at 2µM, 24h preincubation
[5] = 2µM, 24h preincubation with gametocytes prior to induction of gametogenesis
[6] = 2µM, 24h preincubation, number of replicates with >50% inhibition in the male readout
[7] = 2µM, 24h preincubation, number of replicates with >50% inhibition in the female readout
[8] = 2µM, 24h preincubation, hits selected on >50% inhibition in the male readout across replicates
[9] = 2µM, 24h preincubation, hits selected on >50% inhibition in the female readout across replicates

SMILES	Average inhibition male (%) [1, 5] [%]	% inhibition male (individual replicates) R1 [1, 5] [%]	% inhibition male (individual replicates) R3 [1, 5] [%]	% inhibition male (individual replicates) R4 [1, 5] [%]	HitlevelM [1, 6]	Average inhibition female (%) [2, 5] [%]	% inhibition female (individual replicates) R1 [2, 5] [%]	% inhibition female (individual replicates) R3 [2, 5] [%]	% inhibition female (individual replicates) R4 [2, 5] [%]	HitlevelF [2, 7]	also measured
COc1ccc(OC)c(C=CC(=O)NC2CCC(CN3CCC(c4c[nH]c5ccccc45)CC3)CC2)c1 (centres unmarked) [TCMDC-139893]	–	–	–	–	–	–	–	–	–	–	% inhibition male (individual replicates) R1 [1, 3]: 4.2%; % inhibition male (individual replicates) R3 [1, 3]: -21.0%; % inhibition male (individual replicates) R4 [1, 3]: 20.2%; Average inhibition male (%) [1, 4]: 1.9%; % inhibition female (individual replicates) R1 [2, 3]: 6.5%; % inhibition female (individual replicates) R3 [2, 3]: -21.7%; % inhibition female (individual replicates) R4 [2, 3]: -6.1%; Average inhibition female (%) [2, 4]: -1.6%
CN(C)CCCNCc1ccc(-c2ccc(C(F)(F)F)cc2)cc1 [TCMDC-140011]	54.2	60.9	33.7	61.6	3	26.9	39.3	-6.8	25.9	0	–
OCc1c(Cl)cc(Cl)cc1CNCCCNc1nc2ccccc2[nH]1 [TCMDC-140012]	–	–	–	–	–	–	–	–	–	–	% inhibition male (individual replicates) R1 [1, 3]: -9.5%; % inhibition male (individual replicates) R4 [1, 3]: -7.6%; Average inhibition male (%) [1, 4]: -5.6%; % inhibition female (individual replicates) R1 [2, 3]: -1.6%; % inhibition female (individual replicates) R3 [2, 3]: -10.9%; % inhibition female (individual replicates) R4 [2, 3]: -3.1%; Average inhibition female (%) [2, 4]: -6.6%
Nc1ccc2[nH]cc(C3CCN(CCC4CCN(C(=O)/C=C/c5ccc(Cl)c(Cl)c5)CC4)CC3)c2n1 [TCMDC-140062]	34.7	41.7	-5.5	54.9	1	24.0	25.9	21.4	19.8	0	–
O=C(/C=C/c1ccc(Cl)c(Cl)c1)N1CCC(CN2CCC(c3c[nH]c4ccncc34)CC2)CC1 [TCMDC-140074]	29.9	24.9	-2.0	40.2	1	19.7	24.3	8.2	6.7	0	–
COc1cc(C(=O)NC2CCN(Cc3ccccc3)CC2)ccc1-c1nc2cc(Cl)c(Cl)cc2[nH]1 [TCMDC-140078]	4.4	13.3	2.8	2.9	–	6.4	17.0	-8.0	18.5	–	HitlevelM [1, 8]: 0; Activity [1, 4]: 0; HitlevelF [2, 9]: 0
CN(C)CCCOc1cccc(CCNCc2cccc(Oc3ccc(Cl)cc3)c2)c1.O=C(O)C(F)(F)F [TCMDC-140091]	24.7	7.1	12.3	44.2	–	6.3	16.6	-0.66	-7.8	–	HitlevelM [1, 8]: 0; Activity [1, 4]: 0; HitlevelF [2, 9]: 0
CC(=O)Nc1ccc2[nH]cc(C3CCN(CC4CCC(NC(=O)/C=C/c5ccccc5Cl)CC4)CC3)c2n1 (centres unmarked) [TCMDC-140111]	33.8	38.4	–	14.3	0	28.1	31.7	20.9	26.6	0	–
CC(=O)Nc1ccc2[nH]cc(C3CCN(CC4CCN(C(=O)/C=C/c5ccc(Cl)c(Cl)c5)CC4)CC3)c2n1 [TCMDC-140112]	36.8	41.7	26.0	45.6	0	33.3	35.7	28.7	36.0	0	–
CC(=O)Nc1ccc2[nH]cc(C3CCN(CC4CCC(NC(=O)/C=C/c5ccc(Cl)c(Cl)c5)CC4)CC3)c2n1 (centres unmarked) [TCMDC-140114]	48.3	53.7	39.7	57.6	2	33.1	26.2	29.8	41.8	0	–
Nc1cc2c(C3CCN(CC4CCN(C(=O)/C=C/c5ccc(Cl)c(Cl)c5)CC4)CC3)c[nH]c2cn1 [TCMDC-140133]	52.8	50.4	47.4	52.9	3	13.5	13.3	3.5	10.0	0	–
O=C(/C=C/c1c(Cl)cccc1Cl)NC1CCC(CN2CCC(c3c[nH]c4ccncc34)CC2)CC1 (centres unmarked) [TCMDC-140220]	43.5	44.6	17.7	42.9	–	10.7	11.8	11.4	18.8	–	HitlevelM [1, 8]: 1; Activity [1, 4]: 0; HitlevelF [2, 9]: 0
CN(C)CCCOc1ccccc1CN1CC[C@H](NC(=O)c2ccc(Cl)c(Cl)c2)C1.O=C(O)C(F)(F)F [TCMDC-140310]	6.1	4.0	–	4.7	–	10.5	10.3	9.3	14.4	–	HitlevelM [1, 8]: 0; Activity [1, 4]: 0; HitlevelF [2, 9]: 0
Cc1ccc2cc(NC(=O)CCCCCCCON3C(N)=NC(N)=NC34CCCCC4)ccc2n1.O=C(O)C(F)(F)F [TCMDC-140377]	–	–	–	–	–	–	–	–	–	–	% inhibition male (individual replicates) R1 [1, 3]: -16.0%; % inhibition male (individual replicates) R3 [1, 3]: -37.7%; % inhibition male (individual replicates) R4 [1, 3]: -32.5%; Average inhibition male (%) [1, 4]: -24.7%; % inhibition female (individual replicates) R1 [2, 3]: 7.6%; % inhibition female (individual replicates) R3 [2, 3]: -9.1%; % inhibition female (individual replicates) R4 [2, 3]: 0.33%; Average inhibition female (%) [2, 4]: 0.7%
Cc1cc(CNCCCCCCNCc2ccc(-c3ccccc3)cc2)ccc1O [TCMDC-140412]	–	–	–	–	–	–	–	–	–	–	% inhibition male (individual replicates) R1 [1, 3]: 6.5%; % inhibition male (individual replicates) R4 [1, 3]: 7.3%; Average inhibition male (%) [1, 4]: 9.5%; % inhibition female (individual replicates) R1 [2, 3]: 8.1%; % inhibition female (individual replicates) R3 [2, 3]: -7.2%; % inhibition female (individual replicates) R4 [2, 3]: 4.6%; Average inhibition female (%) [2, 4]: 1.3%
Cc1cc(CNCCCCCCCNCc2ccc(-c3ccccc3)cc2)ccc1O [TCMDC-140415]	–	–	–	–	–	–	–	–	–	–	% inhibition male (individual replicates) R1 [1, 3]: 37.4%; % inhibition male (individual replicates) R3 [1, 3]: 30.2%; % inhibition male (individual replicates) R4 [1, 3]: 70.9%; Average inhibition male (%) [1, 4]: 52.6%; % inhibition female (individual replicates) R1 [2, 3]: 15.4%; % inhibition female (individual replicates) R3 [2, 3]: -2.4%; % inhibition female (individual replicates) R4 [2, 3]: -10.0%; Average inhibition female (%) [2, 4]: 3.6%
NCc1cccc(-c2ccccc2CNC2CCN(Cc3ccccc3)CC2)c1.O=C(O)C(F)(F)F [TCMDC-140467]	3.4	-0.12	-13.3	18.9	0	24.8	22.3	3.0	28.3	0	–
O=C(O)C(F)(F)F.c1ccc(CN2CCC(NCc3ccc(-c4cccc(CNC5CCCC5)c4)cc3)CC2)cc1 [TCMDC-140491]	4.9	9.8	–	-11.4	–	15.2	11.0	20.4	13.9	–	HitlevelM [1, 8]: 0; Activity [1, 4]: 0; HitlevelF [2, 9]: 0
